In ChEMBL document CHEMBL1142005, “Utilization of a nitrobenzoxadiazole (NBD) fluorophore in the design of a Grb2 SH2 domain-binding peptide mimetic” (Bioorg Med Chem Lett, 2005):

Columns and labels:
[1] = molecular target: T1, Growth factor receptor-bound protein 2 (Homo sapiens, UniProt P62993); assay: Inhibitory concentration for human growth factor receptor bound protein 2
Target sequence in this assay (P62993 whole entry): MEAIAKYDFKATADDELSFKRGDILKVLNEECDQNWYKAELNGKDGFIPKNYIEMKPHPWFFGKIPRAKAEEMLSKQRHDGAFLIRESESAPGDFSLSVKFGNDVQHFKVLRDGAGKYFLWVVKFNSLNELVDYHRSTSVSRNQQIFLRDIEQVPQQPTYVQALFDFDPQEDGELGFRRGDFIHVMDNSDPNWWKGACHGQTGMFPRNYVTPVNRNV

[2] = molecular target: T1, Growth factor receptor-bound protein 2; assay: First order rate constant (koff) for human growth factor receptor bound protein 2
Target sequence in this assay (P62993 whole entry, looked up): as the sequence (P62993 whole entry) above

[3] = molecular target: T1, Growth factor receptor-bound protein 2; assay: Apparent dissociation constant for human growth factor receptor bound protein 2
Target sequence in this assay (P62993 whole entry): as above

[4] = molecular target: T1, Growth factor receptor-bound protein 2; assay: First order rate constant (kon) for human growth factor receptor bound protein 2
Target sequence in this assay (P62993 whole entry, looked up): as the sequence (P62993 whole entry) above

For `NC(=O)C[C@H](NC(=O)C1(NC(=O)[C@@H](CC(=O)O)Cc2ccc(CP(=O)(O)O)cc2)CCCCC1)C(=O)NCCNc1ccc([N+](=O)[O-])c2nonc12`, the IC50 [1] was 167 nM, the k off [2] was 0.14 s⁻¹ and the Kd [3] was 119 nM. For the same molecule, the kon [4] was 1.18e+06 1/M1/S.
For `NC(=O)C[C@H](NC(=O)C1(NC(=O)[C@@H](CC(=O)O)Cc2ccc(CP(=O)(O)O)cc2)CCCCC1)C(=O)NCCCc1cccc2ccccc12`, the k off [2] was 0.0991 s⁻¹, the Kd [3] was 23.8 nM and the kon [4] was 4.18e+06 1/M1/S.
